Measurements published in US20220213436A1, “BRAIN ORGANOID MACHINE INTERFACE” (The Regents of the University of California, priority 2019, published 2022).

These molecules were tested on cortical organoids (assay: Pharmacological manipulation of cortical organoid network activity recorded by multi-electrode array (MEA)). Settings: not given.
Type: cell-based, human

**Q.** For `NC1=N[C@H](O)[C@H]2[C@H]3O[C@]4(O)O[C@@H]([C@@H](O)[C@@]2(N1)[C@@H]4O)[C@]3(O)CO` [tetrodotoxin], which neuronal electrical activity is on record?
**A.** Its neuronal electrical activity is “blocked”.

Same assay, conditions: 8-month-old organoids; recording 15 min after addition; 20 μM AP5, 20 μM CNQX, 50 μM muscimol, 25 μM baclofen, 10 μM bicuculline

**Q.** Which results are given for `NC(CCCP(=O)(O)O)C(=O)O` (stereo not drawn) [AP5]?
**A.** number of bursts / burst activity: significantly reducing; synchronous activity / synchrony indexes: extinction

**Q.** How did the “number of bursts / burst activity” value turn out when `N#Cc1cc2[nH]c(=O)c(=O)[nH]c2cc1[N+](=O)[O-]` [CNQX] was run?
**A.** The value was “significantly reducing”.

**Q.** What about the “synchronous activity / synchrony indexes” value of the same molecule?
**A.** Its value is “extinction”.

**Q.** `NCC(CC(=O)O)c1ccc(Cl)cc1` (stereo not drawn) [baclofen] was tested. Which “number of bursts / burst activity” value did it give?
**A.** Its value is “significantly reducing”.

**Q.** And the “synchronous activity / synchrony indexes” value?
**A.** Its value is “extinction”.

**Q.** `NCc1cc(=O)[nH]o1` [muscimol] was tested. Which “number of bursts / burst activity” value did it give?
**A.** The value was “significantly reducing”.

**Q.** What about the “synchronous activity / synchrony indexes” value of the same molecule?
**A.** Its value is “extinction”.
